Test results from US20240366586A1, “METHODS AND AGENTS FOR MODULATING THE IMMUNE RESPONSE” (The Regents of the University of California, priority 2021, published 2024).
Structures can show the parent of a compound that is named as a salt.

These molecules were tested on Il12b (assay: Dual-fluorescence reporter macrophage cell line screen, lipopolysaccharide-stimulated: chromatinized Il12b-eGFP versus minimal Il12b-DsRed reporter). Settings: additional compounds of Formulas (I)-(IV), same screening procedure.
Format: cell-based
Source text: We hypothesized that molecules that inhibit the “chromatinized” Il12b reporter but not the “minimal” Il12b reporter would offer a greater degree of Il12b inhibition selectivity.
We generated a dual-fluorescence reporter macrophage cell line having both a [Il12b]-[eGFP] chromatin-based construct and a [Il12b]-[DSred] plasmid vector. FIG. 3. We then stimulated an […] response in the cell line using lipopolysaccharide, an activator of Il12b expression, and tested a library of over 60,000 known and unknown (i.e., undescribed in the literature) small-molecule compounds.
Additional compounds in Formulas (I)-(IV) were screened following the same procedure as described above, with eGFP fluorescence as a readout for inhibition of IL12b.

Which “inhibition of IL12b, eGFP fluorescence as readout” value (“inhibition of IL12b … as readout” below) does the source give for `COc1cc(OC)cc(C(=O)N(Cc2ccc(F)cc2)Cc2cc3c(C)ccc(C)c3[nH]c2=O)c1` [Compound I-2, N-[(5,8-dimethyl-2-oxo-1H-quinolin-3-yl)methyl]-N-[(4-fluorophenyl)methyl]-3,5-dimethoxybenzamide] here?
The value was “Positive activity”.

How did the “inhibition of IL12b … as readout” value turn out when `CCOc1ccc2[nH]c(=O)c(CN(Cc3ccco3)C(=O)c3ccc(C(C)(C)C)cc3)cc2c1` [Compound I-3, 4-tert-butyl-N-[(6-ethoxy-2-oxo-1H-quinolin-3-yl)methyl]-N-(furan-2-ylmethyl)benzamide] was run?
Its value is “Positive activity”.

How did the “inhibition of IL12b … as readout” value turn out when `Cc1ccc(NC(=O)N(Cc2ccco2)Cc2cc3cc4c(cc3[nH]c2=O)OCCO4)cc1` [Compound I-4, 1-(furan-2-ylmethyl)-3-(4-methylphenyl)-1-[(7-oxo-3,6-dihydro-2H-[1,4]dioxino[2,3-g]quinolin-8-yl)methyl]urea] was run?
The value was “Positive activity”.

For `CCOc1ccc2[nH]c(=O)c(CN(Cc3ccco3)C(=O)Nc3ccc(OC)cc3)cc2c1` [Compound I-5, 1-[(6-ethoxy-2-oxo-1H-quinolin-3-yl)methyl]-1-(furan-2-ylmethyl)-3-(4-methoxyphenyl)urea], which “inhibition of IL12b … as readout” value is on record?
The value was “Positive activity”.

Which “inhibition of IL12b … as readout” value does the source give for `CCOc1ccc(NC(=S)N(Cc2ccco2)Cc2cc3ccc(C)cc3[nH]c2=O)cc1` [Compound I-6, 3-(4-ethoxyphenyl)-1-(furan-2-ylmethyl)-1-[(7-methyl-2-oxo-1H-quinolin-3-yl)methyl]thiourea] here?
Its value is “Positive activity”.

Which “inhibition of IL12b … as readout” value does the source give for `Cc1ccc(NC(=O)N(Cc2ccco2)Cc2cc3cc4c(cc3[nH]c2=O)OCO4)cc1` [Compound I-7, 1-(furan-2-ylmethyl)-3-(4-methylphenyl)-1-[(6-oxo-5H-[1,3]dioxolo[4,5-g]quinolin-7-yl)methyl]urea] here?
The value was “Positive activity”.

`O=C(NCc1ccccc1)N(Cc1ccco1)Cc1cc2cc3c(cc2[nH]c1=O)OCO3` [Compound I-8, 3-benzyl-1-(furan-2-ylmethyl)-1-[(6-oxo-5H-[1,3]dioxolo[4,5-g]quinolin-7-yl)methyl]urea] was tested. Which “inhibition of IL12b … as readout” value did it give?
Its value is “Positive activity”.

`CCc1ccc2[nH]c(=O)c(CN(Cc3ccco3)C(=S)NCc3ccccc3)cc2c1` [Compound I-9, 3-benzyl-1-[(6-ethyl-2-oxo-1H-quinolin-3-yl)methyl]-1-(furan-2-ylmethyl)thiourea] was tested. Which “inhibition of IL12b … as readout” value did it give?
Its value is “Positive activity”.

Which “inhibition of IL12b … as readout” value does the source give for `Cc1ccc(C)c2[nH]c(=O)c(CN(Cc3ccco3)C(=S)NCc3ccco3)cc12` [Compound I-10, 1-[(5,8-dimethyl-2-oxo-1H-quinolin-3-yl)methyl]-1,3-bis(furan-2-ylmethyl)thiourea] here?
Its value is “Positive activity”.

`CCOc1ccc2[nH]c(=O)c(CN(Cc3ccco3)C(=O)c3cccs3)cc2c1` [Compound I-11, N-[(6-ethoxy-2-oxo-1H-quinolin-3-yl)methyl]-N-(furan-2-ylmethyl)thiophene-2-carboxamide] was tested. Which “inhibition of IL12b … as readout” value did it give?
Its value is “Positive activity”.

`O=C(CCc1ccccc1)N/N=C\c1ccc([N+](=O)[O-])s1` [II-2, N—[(Z)-(5-nitrothiophen-2-yl)methylideneamino]-3-phenylpropanamide] was tested. Which “inhibition of IL12b … as readout” value did it give?
The value was “Positive activity”.

How did the “inhibition of IL12b … as readout” value turn out when `O=C(N/N=C\c1ccc([N+](=O)[O-])o1)c1ccc(-c2ccccc2)cc1` [II-3, N—[(Z)-(5-nitrofuran-2-yl)methylideneamino]-4-phenylbenzamide] was run?
The value was “Positive activity”.

How did the “inhibition of IL12b … as readout” value turn out when `C/C(=N\NC(=O)c1cccc(Cl)c1)c1ccc([N+](=O)[O-])o1` [II-4, 3-chloro-N-[(E)-1-(5-nitrofuran-2-yl)ethylideneamino]benzamide] was run?
The value was “Positive activity”.

`O=C(Cc1ccc(Cl)cc1)N/N=C\c1ccc([N+](=O)[O-])o1` [II-5, 2-(4-chlorophenyl)-N—[(Z)-(5-nitrofuran-2-yl)methylideneamino]acetamide] was tested. Which “inhibition of IL12b … as readout” value did it give?
The value was “Positive activity”.

With `O=C(N/N=C\c1ccc([N+](=O)[O-])o1)c1cccc2ccccc12` [II-6, N—[(Z)-(5-nitrofuran-2-yl)methylideneamino]naphthalene-1-carboxamide] as the molecule, how does the “inhibition of IL12b … as readout” value read?
The value was “Positive activity”.

`O=c1cccc2n1C[C@H]1C[C@@H]2CN(Cc2ccc3ccc4cccc5ccc2c3c45)C1` [III-2, (1R,9S)-11-(pyren-1-ylmethyl)-7,11-diazatricyclo[7.3.1.0^2,7]trideca-2,4-dien-6-one] was tested. Which “inhibition of IL12b … as readout” value did it give?
The value was “Positive activity”.

With `COc1ccc(Br)cc1/C=C/C(=O)c1ccc2c(c1)OCCO2` [IV-2, (E)-3-(5-bromo-2-methoxyphenyl)-1-(2,3-dihydro-1,4-benzodioxin-6-yl)prop-2-en-1-one] as the molecule, how does the “inhibition of IL12b … as readout” value read?
The value was “Positive activity”.

`COc1ccc(OC)c(/C=C/C(=O)c2ccc(C)cc2)c1` [IV-3, (E)-3-(2,5-dimethoxyphenyl)-1-(4-methylphenyl)prop-2-en-1-one] was tested. Which “inhibition of IL12b … as readout” value did it give?
Its value is “Positive activity”.

Which “inhibition of IL12b … as readout” value does the source give for `COc1ccc(C(=O)/C=C/c2cccc(Cl)c2)cc1OC` [IV-4, (E)-3-(3-chlorophenyl)-1-(3,4-dimethoxyphenyl)prop-2-en-1-one] here?
The value was “Positive activity”.

`CCOc1ccc(C(=O)/C=C/c2cccc(OC)c2OC)cc1` [IV-5, (E)-3-(2,3-dimethoxyphenyl)-1-(4-ethoxyphenyl)prop-2-en-1-one] was tested. Which “inhibition of IL12b … as readout” value did it give?
The value was “Positive activity”.

Same assay, conditions: lipopolysaccharide-stimulated dual-fluorescence reporter macrophage cell line

How did the “selective inhibition of the chromatinized Il12b reporter (eGFP) but not the minimal reporter (DsRed)” value turn out when `C/C(=C\c1cccc2ccccc12)[N+](=O)[O-]` [1-(2-nitro-1-propen-1-yl)naphthalene] was run?
The value was “selective inhibitors of chromatinized Il12b”.

For `CCOc1ccc(/C=C/[N+](=O)[O-])cc1` [1-ethoxy-4-(2-nitrovinyl)benzene], which “selective inhibition of the chromatinized Il12b reporter (eGFP) but not the minimal reporter (DsRed)” value is on record?
The value was “selective inhibitors of chromatinized Il12b”.

With `O=C(/C(=C/c1cccnc1)c1nc2ccccc2[nH]1)c1ccccc1` [2-(1H-benzimidazol-2-yl)-1-phenyl-3-(3-pyridinyl)-2-propen-1-one] as the molecule, how does the “selective inhibition of the chromatinized Il12b reporter (eGFP) but not the minimal reporter (DsRed)” value read?
Its value is “selective inhibitors of chromatinized Il12b”.

`NC(=O)c1ccccc1/N=C/c1ccc([N+](=O)[O-])s1` [2-{[(5-nitro-2-thienyl)methylene]amino}benzamide] was tested. Which “selective inhibition of the chromatinized Il12b reporter (eGFP) but not the minimal reporter (DsRed)” value did it give?
Its value is “selective inhibitors of chromatinized Il12b”.

With `CC[n+]1c2ccccc2nc2ccccc21` [5-ethylphenazin-5-ium ethyl sulfate] as the molecule, how does the “selective inhibition of the chromatinized Il12b reporter (eGFP) but not the minimal reporter (DsRed)” value read?
The value was “selective inhibitors of chromatinized Il12b”.

For `O=c1cc(C(Cl)(Cl)Cl)oc2ccc(Cl)cc12` [6-chloro-2-(trichloromethyl)-4H-chromen-4-one], which “selective inhibition of the chromatinized Il12b reporter (eGFP) but not the minimal reporter (DsRed)” value is on record?
Its value is “selective inhibitors of chromatinized Il12b”.

How did the “selective inhibition of the chromatinized Il12b reporter (eGFP) but not the minimal reporter (DsRed)” value turn out when `CC(=O)Nc1ccc(Br)cc1-c1ccccc1` [N-(5-bromo-2-biphenylyl)acetamide] was run?
Its value is “selective inhibitors of chromatinized Il12b”.

For `Cc1cc2ncn(N=Cc3ccc([N+](=O)[O-])o3)c2cc1C` [UK6, 5,6-dimethyl-N-[(5-nitro-2-furyl)methylene]-1H-benzimidazol-1-amine], which “selective inhibition of the chromatinized Il12b reporter (eGFP) but not the minimal reporter (DsRed)” value is on record?
The value was “selective inhibitors of chromatinized Il12b”.

How did the “selective inhibition of the chromatinized Il12b reporter (eGFP) but not the minimal reporter (DsRed)” value turn out when `CCOC(=O)C(=Cc1ccc2c(c1)C(=O)CC2=O)C(=O)OCC` [diethyl [(1,3-dioxo-2,3-dihydro-1H-inden-5-yl)methylene]malonate] was run?
The value was “selective inhibitors of chromatinized Il12b”.

Each molecule was assayed on Il12b (assay: RNA-Seq / ATAC-Seq of lipopolysaccharide-induced genes in treated macrophages). Settings: RNA-Seq and ATAC-Seq analyses, macrophages.
Format: cell-based
Source text: Our screening experiment identified as compounds that […]. Using ATAC-Seq and RNA-Seq analyses, we confirmed that the screen indeed identified hits that work by affecting chromatin, and confirmed that β adrenergic agonists, (and in particular β2 adrenergic agonists) are indeed exquisitely selective inhibitors of Il12b gene expression.
The inhibition of Il12b by β agonists occurs upon stimulation of macrophages with other inflammatory stimuli, including CpG DNA, double stranded RNA, and imiquimod. We confirmed that the cAMP/PKA pathway, but not the exchange factor directly activated by cAMP (EPAC) pathway, was largely responsible for mediating the Il12b suppression by 0-agonists.
FIG. 7B depicts a fold change box plot in samples treated with UK17 (3-fluoro-N′-[(5-nitro-2-thienyl)methylene]benzohydrazide (CID #6895129)), classifying lipopolysaccharide-induced genes by gene-regulation cluster as previously described in Tong A. et al., A Stringent Systems Approach Uncovers Gene-Specific Mechanisms Regulating Inflammation, Cell 165 165-179 (2016). Box plots indicate the distribution of fold change values for each cluster. Red lines are drawn at 1 and −1, indicating a 2-fold up or down-regulation of genes. Il12b is labeled in red.

`CCCC(=O)Nc1ncnc2c1ncn2[C@@H]1O[C@@H]2COP(=O)(O)O[C@H]2[C@H]1OC(=O)CCC` [dibutyryl cyclic AMP, reference compound] was tested. Which “selective inhibition of Il12b gene expression” value did it give?
The value was “selectively inhibit IL12b expression”.

Same assay, conditions: genes with RPKM>4 and FC>10, ranked by fold change (Max RPKM with/without compound)

With `Cc1cc2ncn(N=Cc3ccc([N+](=O)[O-])o3)c2cc1C` [UK6, 5,6-dimethyl-N-[(5-nitro-2-furyl)methylene]-1H-benzimidazol-1-amine] as the molecule, how does the “rank of Il12b among the most strongly inhibited lipopolysaccharide-induced genes” value read?
The value was ≤ 20.
